The source made the active and inactive calls. The calls are words filed in the database; no cut-off is given here.
Columns and labels:
[1] = species: Danio rerio; assay: Inhibition of AMPK in zebrafish assessed as embryonic axis dorsalization at 400 uM treated at 3 hrs post-fertilization measured at 48 hrs; design: scale not given: the % may be the effect or the level left
[2] = species: Danio rerio; assay: Inhibition of AMPK in zebrafish assessed as embryonic axis dorsalization at 4 uM treated at 3 hrs post-fertilization measured at 48 hrs; design: scale not given: the % may be the effect or the level left
[3] = species: Danio rerio; assay: Toxicity in zebrafish assessed as survivability at 4 to 400 uM treated at 3 hrs post-fertilization measured at 48 hrs; format: organism-based; conditions: in vivo
[4] = species: Danio rerio; assay: Inhibition of AMPK in zebrafish assessed as embryonic axis dorsalization at 200 uM treated at 3 hrs post-fertilization measured at 48 hrs; design: scale not given: the % may be the effect or the level left
[5] = species: Danio rerio; assay: Inhibition of AMPK in zebrafish assessed as embryonic axis dorsalization at 40 uM treated at 3 hrs post-fertilization measured at 48 hrs; design: scale not given: the % may be the effect or the level left
[6] = species: Danio rerio; assay: Inhibition of AMPK in zebrafish assessed as embryonic axis dorsalization at 20 uM treated at 3 hrs post-fertilization measured at 48 hrs; design: scale not given: the % may be the effect or the level left
[7] = species: Danio rerio; assay: Inhibition of AMPK in zebrafish assessed as embryonic axis dorsalization at 100 uM treated at 3 hrs post-fertilization measured at 48 hrs; design: scale not given: the % may be the effect or the level left
[8] = target: AMP-activated protein kinase, AMPK (Homo sapiens) (UniProt P54646+O43741+P54619+Q9UGJ0+Q9Y478+Q13131+Q9UGI9); assay: Inhibition of AMPK-mediated hepcidin mRNA expression in BMP2-stimulated human Hep3B cells at 250 uM treated 30 mins before BMP2 challenge measured after 16 hrs by qRT-PCR analysis; format: cell-based; conditions: Hep 3B2
[9] = test system: Hep 3B2; assay: Inhibition of hepcidin mRNA expression in human Hep3B cells at 250 uM after 30 mins by qRT-PCR analysis; format: functional; conditions: 0.5 h

| Activity [1] [%] | Activity [2] [%] | Activity [4] [%] | Activity [5] [%] | Activity [6] [%] | Activity [7] [%] | inhibition [8] | SMILES | Activity [3] | inhibition at 250 µM [9] [%] |
| --- | --- | --- | --- | --- | --- | --- | --- | --- | --- |
| 0 | 0 | 0 | 0 | 0 | 0 |  | C=C1C(=O)O[C@H](CCCCCCCC)[C@H]1C(=O)O | Toxic |  |
|  |  |  |  |  |  | inactive | Nc1ncnc2c1ncn2[C@@H]1O[C@H](CO)[C@@H](O)[C@@H]1O [VIDARABINE] |  | 40 |
